Data on 17 compounds can be found in patent publication US11027027B2, “Pyridazinoindole compounds and methods for PET imaging” (Vanderbilt University, priority 2015, dated 2021).

The target of series [1] is T1, TSPO (Rattus norvegicus, UniProt P16257). On the set-up: frozen and thawed three times in lysis buffer; endogenous in cells; host or cells: C6 rat glioma cells. The note with it: cited from earlier work.
Series [2] has as its target T1, TSPO. The experiment in a line: TSPO radiometric binding assay, kidney lysate, displacement of [3H]PK11195. On the procedure:
(§1) Affinities are expressed as Ki±S.E.M. (pM) in Table 1. All experiments were performed in triplicate.
(§2) Male Wistar rats were sacrificed and the heart and kidney collected and dissected. The tissues were homogenized in 20 volumes of ice-cold PBS buffer (pH 7.4) with a Brinkmann microhomogenizer (Kinematica AG, Luzern, SW). The homogenate was collected at a protein concentration of 5.0 mg/mL and stored at −80° C. C6 cells were collected and washed with PBS buffer three times, and then frozen and thawed three times in lysis buffer (5.0 mM HEPES, 0.21 M D-mannitol, 0.07 M sucrose, 2.0 mM benzamidine, 2.0 mM toluenesulfonyl fluoride, 4.0 mM MgCl2, pH 7.4) to produce C6 cell lysate (0.5 mg/mL). […] The reaction was terminated by rapid filtration through a Brandel harvester (Gaithersburg, Md., USA) and collection onto a filter presoaked with 0.3% polyethyleneimine. Filters were then punched out into scintillation vials and bound radioactivity measured on a Beckman LS 6000 Scintillation Counter (Brea, Calif., USA). […] All experiments were performed in triplicate.
(Loss of bound radioactivity is the signal in a displacement assay; it reports binding, not function.)

The target of series [3] is T1, TSPO. The experiment in a line: TSPO radiometric binding assay, heart lysate, displacement of [3H]PK11195. How it is done: as §1, §2
Series [4] addresses T1, TSPO. The series is described as follows: TSPO radiometric binding assay, C6 glioma cell lysate, displacement of [3H]PK11195. On the set-up: frozen and thawed three times in lysis buffer; endogenous in cells; host or cells: C6 rat glioma cells. How it is done: as §1, §2
Series [5] addresses central benzodiazepine receptor (CBR). The experiment in a line: CBR binding assay, displacement of [3H]flunitrazepam in rat brain (cerebral cortex) lysate. The note with it: rat brain lysate / cerebral cortex membranes; selectivity for TSPO over CBR; read-out: Ki versus [3H]flunitrazepam. How it is done: as §1
The homogenate was collected at a protein concentration of 5.0 mg/mL and stored at −80° C. […] All experiments were performed in triplicate.

Series [6] has as its target T1, TSPO. The experiment in a line: Binding affinity to TSPO of fluorescent probes. The source says: Binding affinity to TSPO of fluorescent probes 23-29.
In a further series the target is PBR (Homo sapiens, UniProt P30536). The note with it: cited from earlier work.
Series [7] in a line: Radio-TLC radiometabolite analysis of plasma. Particulars: plasma samples, n=2, preliminary. In kind it is in vivo, rat. On the procedure: (§3) Uptake Characteristics of [^18F]-14 in C6 Glioma. The in vivo performance of [^18F]-14 was evaluated in glioma-bearing (C6), male Wistar rats using microPET imaging, with a typical study shown in FIG. 1. MRI (T2-weighted) was used to localize tumors and for registration of anatomical features with PET (FIG. 1A).^11,12,18 Dynamic PET imaging with [^18F]-14 illustrated that the majority of tracer accumulation in the brain was localized to the tumor, with modest accumulation that exceeded plasma in contralateral, non-tumor brain (FIGS. 1B & 1C). The tumor-selective characteristics of [^18F]-14 afforded excellent imaging contrast between tumor and contralateral tissue. FIG. 1G illustrates time—activity curves (TACs) typical of representative studies for tumor (blue), normal brain (green), and plasma (red) over a 90-min dynamic acquisition.
Arterial blood (500 μL) was collected at 2, 12, 30, and 60 minutes following injection of 1.5 mCi of [^18F]-14. After centrifugation, the plasma was extracted with acetonitrile/water (50 μL, 7/1, v/v). The mixture was then centrifuged and the supernatant used for TLC analysis in 10% dichloromethane in methanol. Radiochromatographic data were recorded and collected using a radioisotope detector (Bioscan, Washington, D.C., USA).

For a further series, the system named is C6 glioma. The series is described as follows: Dynamic microPET imaging of tracer uptake in C6 glioma-bearing rats. Type of series: in vivo, rat. How it is done: as §3
All studies involving animals were conducted in compliance with federal and institutional guidelines. Two weeks before imaging, healthy male Wistar rats were stereotactically inculcated in the right hemisphere with 1.0×10^5 C6 glioma cells (American Type Tissue Collection). Prior to imaging, all rats were affixed with venous and arterial catheters.
PET/CT was performed within 24 hours of MRI in rats with confirmed tumors. Tumor-bearing rats were administered [^18F]-14 via jugular catheter while in a microPET Focus 220 scanner (Siemens, Munich, Del.). […]

The target in series [8] is T1, TSPO. The series is described as follows: In vivo PET displacement study with non-radioactive 14 in C6-bearing rats. On the set-up: frozen and thawed three times in lysis buffer; endogenous in cells; host or cells: C6 rat glioma cells. On the procedure: Specific Binding of [^18F]-14 in Rats. To evaluate the in vivo TSPO specificity of [^18F]-14, the present inventors performed displacement studies in C6-bearing rats using the non-radioactive analog (14). As shown in the TAC in FIG. 1H, during the dynamic PET study, a bolus (IV) infusion of nonradioactive 14 (10 mg/kg) was administered approximately 30 minutes after injection of [^18F]-14. […] During tumor displacement, the present inventors observed a minor influx of tracer into normal brain (green). The displaced [^18F]-14 then rapidly cleared the normal brain and entered the plasma, subsequently elevating plasma (red) radioactivity.
PET/CT was performed within 24 hours of MRI in rats with confirmed tumors. Tumor-bearing rats were administered [^18F]-14 via jugular catheter while in a microPET Focus 220 scanner (Siemens, Munich, Del.). Data were collected in list-mode format for 90 minutes, followed by a CT scan (microCAT II; Siemens) for attenuation correction.
The dynamic PET acquisition was divided into twelve 10-s frames for the first two minutes, three 60-second frames for the following three minutes, and seventeen 300-second frames for the duration of the scan. The raw data within each frame were then binned into three-dimensional sinograms, with a span of three and ring difference of 47. […]

The mark [9] stands for this setting: versus [3H]PK11195, C6 lysate, low-affinity component, read-out: C6 Glioma Ki, low-affinity binding (mixed affinity binding).
The mark [10] stands for this setting: Ki ± S.E.M. versus [3H]PK11195, rat heart lysate, triplicate.
Setting [11] is: Ki ± S.E.M. versus [3H]PK11195, C6 lysate, high-affinity value where binding is mixed, triplicate, read-out: C6 Glioma Ki.

Where two headings read alike, the source gives them in different places.

Sequence of PBR (P30536 whole entry, species assumed): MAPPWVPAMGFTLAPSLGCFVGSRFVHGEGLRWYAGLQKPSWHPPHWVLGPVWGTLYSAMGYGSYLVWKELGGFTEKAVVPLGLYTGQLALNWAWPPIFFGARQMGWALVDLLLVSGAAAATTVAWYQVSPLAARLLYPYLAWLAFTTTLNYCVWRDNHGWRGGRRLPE

In general, Ki refers to the dissociation constant of the complex between target and ligand, obtained from inhibition or displacement. For `COc1ccc(OC)c(CN(C(=O)CF)c2ccccc2Oc2ccccc2)c1` [Compound 1, reference compound], the Ki on TSPO [1] (read-out: Ki for TSPO in C6 glioma (reported), literature values) is 6.17 nM. For the compound `CN(C)C(=O)Cc1nn(-c2ccccc2F)c(=O)c2c1c1ccc(Cl)cc1n2C` [Compound 9, 2-(7-Chloro-3-(2-fluorophenyl)-5-methyl-4-oxo-4,5-dihydro-3H-pyridazino[4,5-b]indol-1-yl)-N,N-dimethylacetamide], the Ki on TSPO [2] (read-out: Kidney Ki) worked out at 0.00118 ± 4e-05 nM. Consider `CN(C)C(=O)Cc1nn(-c2cccc([N+](=O)[O-])c2)c(=O)c2c1c1ccc(Cl)cc1n2C` [Compound 11, 2-(7-Chloro-5-methyl-3-(3-nitrophenyl)-4-oxo-4,5-dihydro-3H-pyridazino[4,5-b]indol-1-yl)-N,N-dimethylacetamide], for which the Ki on TSPO [3] is 0.00118 ± 9e-05 nM.

With `CN(C)C(=O)Cc1nn(-c2ccc(F)cc2)c(=O)c2c1c1ccc(Cl)cc1n2C` [Compound 12, 2-(7-Chloro-3-(4-fluorophenyl)-5-methyl-4-oxo-4,5-dihydro-3H-pyridazino[4,5-b]indol-1-yl)-N,N-dimethylacetamide], the Ki on TSPO [4] (setting [9]) is 3.02 ± 1.01 nM; at TSPO [2] (read-out: Kidney Ki, low-affinity binding (mixed affinity binding)), 0.969 nM.

With `CN(C)C(=O)Cc1nn(-c2ccccn2)c(=O)c2c1c1ccc(Cl)cc1n2C` [Compound 13, 2-(7-Chloro-5-methyl-4-oxo-3-(pyridin-2-yl)-4,5-dihydro-3H-pyridazino[4,5-b]indol-1-yl)-N,N-dimethylacetamide], the Ki at TSPO [3] turned out to be 4.94 nM; at TSPO [4] (setting [11]), 2.41 nM; at TSPO [2] (read-out: Kidney Ki), 6.8 nM. Further, the “Heart Ki” value on TSPO [3] (setting [10]) is “did not appreciably bind TSPO”. For the same compound, the “C6 Glioma Ki” value on TSPO [4] (Ki ± S.E.M. versus [3H]PK11195, C6 lysate, high-affinity value where binding is mixed, triplicate) is given as “did not appreciably bind TSPO”. Moreover, at TSPO [2] (Ki ± S.E.M. versus [3H]PK11195, rat kidney lysate, high-affinity value where binding is mixed, triplicate), the “Kidney Ki” value is on record as “did not appreciably bind TSPO”. `CN(C)C(=O)Cc1nn(-c2cccc(F)n2)c(=O)c2c1c1ccc(Cl)cc1n2C` [Compound 14, 2-(7-Chloro-3-(6-fluoropyridin-2-yl)-5-methyl-4-oxo-4,5-dihydro-3H-pyridazino[4,5-b]indol-1-yl)-N,N-dimethylacetamide]: the inhibition constant Ki was 0.00321 ± 0.0004 nM on TSPO [3] (setting [10]); 0.00119 nM at TSPO [4] (setting [11]); 1.77 nM at TSPO [4] (setting [9]); 0.00221 ± 0.0004 nM on TSPO [2] (Ki ± S.E.M. versus [3H]PK11195, rat kidney lysate, high-affinity value where binding is mixed, triplicate, read-out: Kidney Ki); > 10000 nM in series [5]. At TSPO [4] (TSPO, in our lab), the “increase in potency over 2b” value was 1000 fold. On to `CN(C)C(=O)Cc1nn(-c2cccc(Cl)n2)c(=O)c2c1c1ccc(Cl)cc1n2C` [Compound 15, 2-(7-Chloro-3-(6-chloropyridin-2-yl)-5-methyl-4-oxo-4,5-dihydro-3H-pyridazino[4,5-b]indol-1-yl)-N,N-dimethylacetamide], for which the Ki on TSPO [4] (setting [11]) came to 0.00234 ± 0.0004 nM.

Consider `CN(C)C(=O)Cc1nn(-c2cccc(Br)n2)c(=O)c2c1c1ccc(Cl)cc1n2C` [Compound 16, 2-(7-Chloro-3-(6-bromopyridin-2-yl)-5-methyl-4-oxo-4,5-dihydro-3H-pyridazino[4,5-b]indol-1-yl)-N,N-dimethylacetamide], for which the inhibitory constant (Ki) at TSPO [4] (setting [11]) was found to be 0.00148 ± 0.0002 nM. The compound `CCc1cc(CC)n2nc(-c3ccc(OCCNC(=S)Nc4ccc5c(c4)C(=O)OC54c5ccc(O)cc5Oc5cc(O)ccc54)cc3)c(CC(=O)N(CC)CC)c2n1` [Compound 23] returned an inhibitory constant (Ki) at TSPO [6] of 13.8 ± 4.99 nM.

For `CCc1cc(CC)n2nc(-c3ccc(OCCCNC(=S)Nc4ccc5c(c4)C(=O)OC54c5ccc(O)cc5Oc5cc(O)ccc54)cc3)c(CC(=O)N(CC)CC)c2n1` [Compound 24], the inhibition constant (Ki) on TSPO [6] is 111 ± 25.6 nM. Same read-out and setting: for `CCc1cc(CC)n2nc(-c3ccc(OCCCCCNC(=S)Nc4ccc5c(c4)C(=O)OC54c5ccc(O)cc5Oc5cc(O)ccc54)cc3)c(CC(=O)N(CC)CC)c2n1` [Compound 26] the value was 185 ± 15.4 nM. Still for that read-out and setting: the figure for `CCc1cc(CC)n2nc(-c3ccc(OCCCCCCNC(=S)Nc4ccc5c(c4)C(=O)OC54c5ccc(O)cc5Oc5cc(O)ccc54)cc3)c(CC(=O)N(CC)CC)c2n1` [Compound 27] is 11.7 ± 4.86 nM. Still for that read-out and setting: the figure for `CCc1cc(CC)n2nc(-c3ccc(OCCCCCCCNC(=S)Nc4ccc5c(c4)C(=O)OC54c5ccc(O)cc5Oc5cc(O)ccc54)cc3)c(CC(=O)N(CC)CC)c2n1` [Compound 28] is 16.3 ± 5.01 nM; for `CCc1cc(CC)n2nc(-c3ccc(OCCCCCCCCNC(=S)Nc4ccc5c(c4)C(=O)OC54c5ccc(O)cc5Oc5cc(O)ccc54)cc3)c(CC(=O)N(CC)CC)c2n1` [Compound 29] it is 0.31 ± 0.02 nM.

For the compound `COc1ccc(OC)c(CN(C(C)=O)c2cc(F)ccc2Oc2ccccc2)c1` [DAA1106], the “binding affinity for PBR” value on PBR is recorded as “fentomolar”. In the case of `CCc1cc(CC)n2nc(-c3ccc(OCC[18F])cc3)c(CC(=O)N(CC)CC)c2n1` [[^18F]-2b, 2-(5,7-diethyl-2-(4-(2-[^18F]fluoroethoxy)phenyl)pyrazolo[1,5-a]pyrimidin-3-yl)-N,N-diethylacetamide], on TSPO [1] (TSPO), the “enhancement in affinity compared to [18F]-2a” value is on record as 36 fold. For the compound `CN(C)C(=O)Cc1nn(-c2cccc([18F])n2)c(=O)c2c1c1ccc(Cl)cc1n2C` [[^18F]-14, 7-chloro-N,N,5-trimethyl-4-oxo-3(6-[^18F]fluoropyridin-2-yl)-3,5-dihydro-4H-pyridazino[4,5-b]indole-1-acetamide], the “% parent at 60 min” value in series [7] is recorded as > 90%. Also, the “tracer accumulation in normal brain and tumor” value in the series with C6 glioma (preclinical model of glioma (C6), PET) is “modest accumulation in normal brain, yet robust accumulation in tumor tissue”. In addition, the “plasma clearance of tracer” value with C6 glioma (time-activity curve, 90-min dynamic acquisition) is “quickly cleared the plasma”. For the same compound, the “tumor binding after injection of 14, % of the peak tumor uptake” value on TSPO [8] (bolus IV nonradioactive 14 (10 mg/kg) about 30 min after tracer) is “approximately 40%”. Further, the “displaceability by non-radioactive 14” value on TSPO [8] (non-radioactive 14 given halfway through the PET scan) is given as “fully displaceable”.
